Data reported in patent US10738030B2, “Modulators of cystic fibrosis transmembrane conductance regulator” (Vertex Pharmaceuticals Incorporated, priority 2016, dated 2020).

Target: T1, F508del (Homo sapiens, UniProt P13569, DEL508-508)
T1 construct: expressed in transfected cells
Assay: Membrane potential optical assay (FRET voltage-sensor dyes), identification of correction compounds
Assay type: cell-based
Settings: NIH3T3 cells stably expressing F508del, procedures described above; for Emax: maximum efficacy, read-out: Max Efficacy; for EC50: modulation of CFTR activity
Method in brief: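 Correctors were applied for 16 hrs at 37° C. to F508del-expressing mouse NIH3T3 cells in serum-free medium; 27° C. incubation served as positive control. Channel activation by forskolin (10 μM) and genistein (20 μM) with gluconate bath drove Cl⁻ efflux, tracked as membrane depolarization via voltage-sensitive FRET dyes.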

T1 sequence (P13569 with tags, fused parts or gaps DEL508-508): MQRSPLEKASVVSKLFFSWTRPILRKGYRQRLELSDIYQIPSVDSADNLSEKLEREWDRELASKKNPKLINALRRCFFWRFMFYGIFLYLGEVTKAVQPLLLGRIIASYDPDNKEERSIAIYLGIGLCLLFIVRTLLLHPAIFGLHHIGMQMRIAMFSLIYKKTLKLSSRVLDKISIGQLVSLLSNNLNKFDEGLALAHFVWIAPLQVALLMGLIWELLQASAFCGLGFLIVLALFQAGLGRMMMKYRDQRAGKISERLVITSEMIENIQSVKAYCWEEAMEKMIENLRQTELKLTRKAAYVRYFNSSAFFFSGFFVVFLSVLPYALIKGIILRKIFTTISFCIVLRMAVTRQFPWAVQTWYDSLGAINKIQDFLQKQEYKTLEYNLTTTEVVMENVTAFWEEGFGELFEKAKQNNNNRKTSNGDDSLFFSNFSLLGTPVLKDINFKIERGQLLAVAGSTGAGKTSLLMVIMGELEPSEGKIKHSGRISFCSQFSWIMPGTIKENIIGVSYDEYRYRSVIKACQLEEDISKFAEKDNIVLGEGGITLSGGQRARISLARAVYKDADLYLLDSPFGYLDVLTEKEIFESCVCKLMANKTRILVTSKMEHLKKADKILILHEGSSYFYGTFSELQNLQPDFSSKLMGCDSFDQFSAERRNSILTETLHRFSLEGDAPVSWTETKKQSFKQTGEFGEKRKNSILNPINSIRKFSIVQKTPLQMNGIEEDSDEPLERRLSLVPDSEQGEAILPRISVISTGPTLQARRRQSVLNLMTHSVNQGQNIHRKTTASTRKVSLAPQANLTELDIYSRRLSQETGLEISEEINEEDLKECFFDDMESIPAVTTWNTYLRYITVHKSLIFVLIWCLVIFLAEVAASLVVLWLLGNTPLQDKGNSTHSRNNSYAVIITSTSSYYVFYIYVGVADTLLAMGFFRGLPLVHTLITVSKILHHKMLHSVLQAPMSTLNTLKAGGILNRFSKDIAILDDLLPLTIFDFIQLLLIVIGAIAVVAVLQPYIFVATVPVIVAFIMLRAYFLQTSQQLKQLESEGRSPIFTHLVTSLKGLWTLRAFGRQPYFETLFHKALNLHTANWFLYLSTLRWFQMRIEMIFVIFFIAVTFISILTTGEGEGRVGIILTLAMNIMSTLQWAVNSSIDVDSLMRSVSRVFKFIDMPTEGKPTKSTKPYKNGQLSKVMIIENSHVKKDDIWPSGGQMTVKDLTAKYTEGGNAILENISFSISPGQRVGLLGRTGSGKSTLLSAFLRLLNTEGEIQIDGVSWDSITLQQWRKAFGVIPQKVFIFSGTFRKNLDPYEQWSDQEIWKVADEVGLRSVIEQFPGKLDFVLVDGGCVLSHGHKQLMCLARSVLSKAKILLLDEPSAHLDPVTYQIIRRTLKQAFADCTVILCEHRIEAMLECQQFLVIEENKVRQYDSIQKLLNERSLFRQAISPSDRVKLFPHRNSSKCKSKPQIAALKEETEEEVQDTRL

Molecule `CC(C)COc1cc(F)cc(-c2ccc(C(=O)NS(=O)(=O)c3cccc(N)n3)c(N(C)CC(F)(F)F)n2)c1` [Compound 66, N-[(6-amino-2-pyridyl)sulfonyl]-6-(3-fluoro-5-isobutoxy-phenyl)-2-[methyl(2,2,2-trifluoroethyl)amino]pyridine-3-carboxamide] has an Emax greater than 80% and an EC50 of less than 3 µM.

In the case of `CCN(CC)c1nc(-c2ccc(OC(C)C)nc2)ccc1C(=O)NS(=O)(=O)c1cccc(N)n1` [Compound 8, N-((6-Aminopyridin-2-yl)sulfonyl)-6-(diethylamino)-6′-isopropoxy-[2,3′-bipyridine]-5-carboxamide], the Emax is reported as 30 to 80% and the EC50 is reported as 3 to 10 µM.
